Data on three compounds can be found in patent US10626436B2, “Method of determining a compositional or functional characteristic of a cell culture media” (Valitacell Limited, priority 2015, dated 2020).

Assay [1] has as its system CHO cell line. The experiment in a line: Chemical fingerprinting: growth of CHO cells with cell stressors in two CD-CHO media lots (Presto Blue assay). As to conditions: CD-CHO media lot 66 vs lot 28; stressor at IC50 concentration, both MSB concentrations; FIG. 2; p<0.05 (Benjamini-Hockberg). Type of assay: cell-based. As to the method:
Two different batches of “CD-CHO media” (Invitrogen, Paisley, UK) were obtained. A CHO cell line was grown in these […] media for 3 passages in 30 ml shake flask culture. “Presto Blue” (Invitrogen, Paisley, UK) was mixed 1:1 with CD-CHO media and 20 ul of this was added to each well. The plate was machine shaken and subsequently incubated for 30 minutes at 37 C in a static humidified incubator. After incubation the fluorescence of the wells was measured (excitation 535 nm emission 620 nm) using a fluoroskan ascent (Thermo-Fisher, Loughborough, UK) plate reader. […] It is clear here that there were significant differences in the cell growth in these different batches of media. This was clearly significant from day 4 onwards.
To test the effect this had on the chemical fingerprint, CHO cells were sub-cultured in CD-CHO in either lot number (66) or (28) for 3 passages. Chemical fingerprinting plates were set up in duplicate to determine the growth of cells in the presence of specific cellular stressors
Using the same CHO cell line used above for the growth studies, inhibitory dose 50 (IC50) concentrations of the above chemicals were identified through growth studies. […]
After this period the level of cell growth in the plates (i.e. in the presence and absence of chemicals as mentioned above) was measured using the “Presto Blue” assay as described above. […]

For assay [2], the system named is reference CHO producer cell. Briefly: Growth of reference CHO producer cell in static microplate culture with a cell stressor in four lots of the same cell culture media. Type of assay: cell-based. The settings on record: stressor at an inhibitory concentration, each in triplicate, FIGS. 3-5. The procedure: FIG. 3: A reference CHO producer cell was grown in static microplate culture in the presence of cobalt chloride (CoCL2) at an inhibitory concentration and four different lots of the same cell culture media (each lot provided in triplicate).
FIG. 4: A reference CHO producer cell was grown in static microplate culture in the presence of menadione sodium bisulphite (MSB2) at an inhibitory concentration and four different lots of the same cell culture media (each lot provided in triplicate).
FIG. 5: A reference CHO producer cell was grown in static microplate culture in the presence of sodium lactate (NaLac) at an inhibitory concentration and four different lots of the same cell culture media (each lot provided in triplicate).

Turning to `CC1(S(=O)(=O)[O-])CC(=O)c2ccccc2C1=O.[Na+]` (stereo not shown) [MSB, Menadione Sodium Bisulphite], the “chemical response (cell growth relative to control well) compared between media lots” value in assay [1] is on record as “clearly significant difference”. Further, the “growth response of the cell in different lots of the cell culture media in the presence of the stressor” value in assay [2] is “differences in growth response”.
As to `[Cl][Co][Cl]` [cobalt chloride, Cobalt chloride], in assay [2], the “growth response of the cell in different lots of the cell culture media in the presence of the stressor” value is “differences in growth response”.
For `CC(O)C(=O)[O-].[Na+]` (stereo not shown) [sodium lactate, Sodium lactate], in assay [2], the “growth response of the cell in different lots of the cell culture media in the presence of the stressor” value is on record as “differences in growth response”.
